Data as given in article PMC3335016, “Analysis of the Nse3/MAGE-Binding Domain of the Nse4/EID Family Proteins” (PLoS ONE, 2012).
One block for each molecule: values may come before it. Where no end group is shown, it is not given here. The star is where a group is joined. Biotin = O=C1N[C@H]2[C@H](CS[C@H]2CCCCC(=O)*)N1

Tests used:
MAGEC2(129-339) protein = assay: PEPSCAN ELISA of EID2 mutant peptides; format: binding, human; details: His-S-MAGEC2(129-339) 200-400 nM, 450 nm; for binding affinity to MAGEC2 relative to wild-type peptide: biotinylated peptide 400 nM on streptavidin-coated plates, 4°C overnight, anti-His/peroxidase, TMB, mean of 3 independent measurements, background = His-hTRF2 control; for binding affinity to MAGEC2 compared with wild-type peptide (in words): biotinylated peptide 400 nM, 3 independent measurements
Experimental: A peptide library of the alanine mutant peptides (Table 1) of the aa 197-217 region of the human EID2 protein was obtained from Mimotopes (Australia). The library was linked to biotin via an additional peptide spacer of serine–glycine–serine–glycine. Each well on ELISA 96-well plates was coated with 100 µl of 5 µg/ml streptavidin (Sigma), incubated overnight at 37°C and then blocked with 3% bovine serum albumin (BSA) in PBS for 2 h at room temperature. The biotinylated peptides (400 nM, in PBS with 0.1% BSA) were applied into wells to saturate their surface and incubated at room temperature for 1 h. The plates were washed three times with 0.1% Tween 20 in PBS and then His-S-MAGEC2(129-339) protein was added (200–400 nM). Plates were incubated at 4°C overnight before washing (as above) to remove unbound protein. First anti-His antibody (Sigma; diluted 1/1000 in PBS with 1% BSA) was incubated for 2 h, washed three times and secondary peroxidase-conjugated rabbit-antiserum against mouse immunoglobulins (DAKO; diluted 1/1000 in PBS with 1% BSA) was added for 1 h (at 4°C). Peroxidase enzyme activity was measured with tetramethylbenzidine and the results were monitored using an automatic ELISA plate reader at a wavelength 450 nm.

necdin (aa 1-321) = assay: Pull-down of biotin-tagged EID2 peptides on streptavidin-agarose beads; format: binding, human; details: in vitro translated necdin, 2 h at 4°C in PBS, SDS-PAGE, phosphorimaging
Experimental: Biotin-tagged EID2 peptides were preincubated overnight with streptavidin-agarose beads (Thermo Scientfic) at 4°C. The beads were washed 2 times with 0.1% Tween 20 in PBS buffer, then in vitro-expressed proteins in a total volume of 200 µl PBS buffer were added and incubated for 2 h at 4°C. The beads were washed 4 times with 0.1% Tween 20 in PBS buffer and the bound proteins were eluted in SDS sample buffer and boiled. Input, unbound, and bound fractions of the in vitro expressed proteins were separated by SDS-PAGE and analyzed by phosphorimaging (FLA-7000, Fujifilm). The bound fractions were analyzed by dot blotting to ensure equal EID2 peptide levels were used in pull down assays (data not shown).

His-S-MAGEC2(129-339) = target: T1, His-S-MAGEC2(129-339) (human, UniProt Q9UBF1 129-339); assay: ELISA; PEPSCAN ELISA; biotinylated EID2 peptides (400 nM) on streptavidin-coated plates; His-S-MAGEC2(129-339) 200–400 nM, 4°C overnight; anti-His detection; details: both partners purified
T1 construct: source: E. coli C41, purified (His-TRAP column, FPLC)
T1 sequence (looked up): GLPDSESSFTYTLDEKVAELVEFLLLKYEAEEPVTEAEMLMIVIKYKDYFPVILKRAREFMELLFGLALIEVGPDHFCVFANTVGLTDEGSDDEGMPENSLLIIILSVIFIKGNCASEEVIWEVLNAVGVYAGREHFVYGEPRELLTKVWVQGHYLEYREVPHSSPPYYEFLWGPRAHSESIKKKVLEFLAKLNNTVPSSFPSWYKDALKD

Molecule: QRNPHRVDLDIATFTIALTAS [peptide #12, EID2 alanine mutant peptide L208A]
binding affinity to MAGEC2 relative to wild-type peptide (MAGEC2(129-339) protein): ~30 % of WT affinity

binding of necdin to peptide (pull-down, in words) (necdin (aa 1-321)): significantly reduced
binding affinity to MAGEC2 relative to wild-type peptide (MAGEC2(129-339) protein): < 20 % of WT affinity
Molecule: QRNPHRVDLDILTATIALTAS [peptide #14, EID2 alanine mutant peptide F210A]

binding of necdin to peptide (pull-down, in words) (necdin (aa 1-321)): comparable to the wild-type peptide
binding affinity to MAGEC2 relative to wild-type peptide (MAGEC2(129-339) protein): < 20 % of WT affinity
binding affinity to MAGEC2 compared with wild-type peptide (in words) (MAGEC2(129-339) protein): significantly reduced
Molecule: QANPHRVDLDILTFTIALTAS [peptide #2, EID2 alanine mutant peptide R198A]

Molecule: QRNPHRVDADILTFTIALTAS [peptide #9, EID2 alanine mutant peptide L205A]
binding affinity to MAGEC2 relative to wild-type peptide (MAGEC2(129-339) protein): ~30 % of WT affinity

binding of necdin to peptide (pull-down, in words) (necdin (aa 1-321)): significantly reduced
binding affinity to MAGEC2 relative to wild-type peptide (MAGEC2(129-339) protein): < 20 % of WT affinity
Molecule: QRNPHRVDLDILTFTAALTAS [peptide #16, EID2 alanine mutant peptide I212A]

Molecule: QRNPHRVALDILTFTIALTAS [peptide #8, EID2 alanine mutant peptide D204A]
binding affinity to MAGEC2 compared with wild-type peptide (in words) (MAGEC2(129-339) protein): comparable to that of the wild-type peptide

binding affinity to MAGEC2 relative to wild-type peptide (MAGEC2(129-339) protein): ~30 % of WT affinity
Molecule: QRNPHRVDLAILTFTIALTAS [peptide #10, EID2 alanine mutant peptide D206A]

binding affinity to MAGEC2 relative to wild-type peptide (MAGEC2(129-339) protein): < 20 % of WT affinity
Molecule: QRNPHRVDLDILTFTIAATAS [peptide #17, EID2 alanine mutant peptide L214A]

Molecule: QRNPHAVDLDILTFTIALTAS [peptide #6, EID2 alanine mutant peptide R202A]
binding affinity to MAGEC2 relative to wild-type peptide (MAGEC2(129-339) protein): < 20 % of WT affinity

binding affinity to MAGEC2 relative to wild-type peptide (MAGEC2(129-339) protein): ~30 % of WT affinity
Molecule: QRNPHRVDLDILTFTIALAAS [peptide #18, EID2 alanine mutant peptide T215A]

binding affinity to MAGEC2 relative to wild-type peptide (MAGEC2(129-339) protein): ~30 % of WT affinity
Molecule: QRNPHRVDLDALTFTIALTAS [peptide #11, EID2 alanine mutant peptide I207A]

binding of necdin to peptide (pull-down, in words) (necdin (aa 1-321)): comparable to the wild-type peptide
binding affinity to MAGEC2 relative to wild-type peptide (MAGEC2(129-339) protein): ~30 % of WT affinity
binding affinity to MAGEC2 compared with wild-type peptide (in words) (MAGEC2(129-339) protein): significantly reduced
Molecule: ARNPHRVDLDILTFTIALTAS [peptide #1, EID2 alanine mutant peptide Q197A]

Molecule: QRNPHRVDLDILTFTIALTAA [peptide #19, EID2 alanine mutant peptide S217A]
binding affinity to MAGEC2 relative to wild-type peptide (MAGEC2(129-339) protein): ~30 % of WT affinity

binding result (His-S-MAGEC2(129-339)): binds
B1: EID2 peptide #3 (peptide)
peptide: Biotin-SGSGQRAPHRVDLDILTFTIALTAS
notes: source: synthetic peptide (Mimotopes)

binding result (His-S-MAGEC2(129-339)): binds
B2: EID2 peptide #4 (peptide)
peptide: Biotin-SGSGQRNAHRVDLDILTFTIALTAS
notes: as for B1

binding result (His-S-MAGEC2(129-339)): binds
B3: EID2 WT peptide (aa 197-217) (peptide)
peptide: Biotin-SGSGQRNPHRVDLDILTFTIALTAS
notes: also called wild-type peptide; long EID2 peptide; source: synthetic peptide (Mimotopes); not shown: biotin-SGSG spacer, N-terminal, kept

binding result (His-S-MAGEC2(129-339)): binds
B4: EID2 peptide #8 (D204A) (peptide)
peptide: Biotin-SGSGQRNPHRVALDILTFTIALTAS
notes: as for B1

binding result (His-S-MAGEC2(129-339)): binds
B5: EID2 peptide #13 (peptide)
peptide: Biotin-SGSGQRNPHRVDLDILAFTIALTAS
notes: as for B1

binding result (His-S-MAGEC2(129-339)): binds
B6: EID2 peptide #5 (peptide)
peptide: Biotin-SGSGQRNPARVDLDILTFTIALTAS
notes: as for B1

binding result (His-S-MAGEC2(129-339)): binds
B7: EID2 peptide #7 (peptide)
peptide: Biotin-SGSGQRNPHRADLDILTFTIALTAS
notes: as for B1

binding result (His-S-MAGEC2(129-339)): binds
B8: EID2 peptide #15 (peptide)
peptide: Biotin-SGSGQRNPHRVDLDILTFAIALTAS
notes: as for B1
